According to US11219625B2, “Inhibitors of N-linked glycosylation and methods using same” (YALE UNIVERSITY, priority 2015, dated 2022):

What was measured:
Type in all cases: cell-based
[1] = system: OST; test: Free and peptide glycans in streptolysin-O permeabilized CHO cells; details: NGI-1 5 μM
Procedure: Fluorophore assisted carbohydrate electrophoresis (FACE) was performed as previously described (Gao, et al., Glycobiology 2002, 12, 353-360; Gao, et al., J Biol Chem 2005, 280, 17901-17909). Control (Ac-Gln-Tyr-Thr-CONH2) and acceptor (Ac-Asn-Tyr-Thr-CONH2) peptides were used for permeabilized cell experiments. Metabolic labeling of Hela cells, transfection of prosaposin (pSAP) and steroid hormone binding globulin (SHBG) vectors, and knockdown of SIT3A and STT3B to monitor N-linked glycosylation knockdown were performed as described (Shrimal, et al., J Cell Biol 2013, 201, 81-95). Western blot analysis was performed as previously described (Bennett, et al., Transl Oncol 2013, 6, 382-391). […]
The OST is an ER resident multi-subunit complex that cleaves LLOs and transfers the oligosaccharide to a protein encoded N-linked glycosylation consensus sequence (NXT/S). […] Both enzymatic products of the OST, free glycans and protein glycans, were therefore determined with and without NGI-1 treatment using optimized conditions in streptolysin-O permeabilized CHO cells (FIG. 2C). Addition of a control peptide without the N-linked glycosylation consensus sequence (QYT) led to readily detectable levels of free glycans (left panel), while addition of an acceptor peptide containing the consensus sequence (NYT) followed by PNGase treatment led to detection of cleaved peptide glycans (right panel). […]

[2] = system: EGFR; test: Western blot of EGFR phosphorylation, PC9 cells; details: PC9, 10 μM NGI-1, 1 day
Procedure: FIGS. 4A-4H illustrate the finding that NGI-1 blocks RTK driven proliferation. FIG. 4A illustrates western blot analysis of EGFR phosphorylation (Y1173) and gel mobility in PC9 (EGFR-mutant) and A549 (k-ras mutant) NSCLC cells after 10 μM NGI-1 treatment for 24 h. […] Actin expression was used as a control for protein loading. FIG. 4B illustrates MTT assays results of PC9 following treatment with 10 μM NGI-1 or 1 μM tunicamycin for a total of 5 d. Relative proliferation id reported in fold increase from day 0. FIG. 4C illustrates MTT assays results of A549 following treatment with 10 μM NGI-1 or 1 μM tunicamycin for a total of 5 d. Relative proliferation id reported in fold increase from day 0. FIG. 4D illustrates protein phosphorylation profiles of PC9 cells analyzed by phospho-protein array to assess the response of PC9 to 10 μM NGI-1 for 24 h. FIG. 4E illustrates protein phosphorylation profiles of A549 cells analyzed by phospho-protein array to assess the response of A549 to 10 μM NGI-1 for 24 h. FIG. 4F illustrates western blot analysis of FGFR phosphorylation (Y653/654) and gel mobility for H1581 (TKI sensitive) and H2444 (TKI insensitive) NSCLC cell lines. […] FIG. 4G illustrates MTT assays for H1581 cells treated with 10 μM NGI-1 for 5 d. Asterisk (***) indicates a significant difference p<0.001 for MTT. FIG. 4H illustrates MTT assays for H2444 cells treated with 10 μM NGI-1 for 5 d. […]

[3] = system: H3255 cells; test: Cell cycle distribution by flow cytometry, H3255; details: H3255, NGI-1 24 h, p<0.05
Procedure: FIGS. 7A-7D illustrate EGFR kinase domain mutant cell lines growth inhibition and cell cycle arrest response to NGI-1. FIG. 7A illustrates MTT assays to determine the effects of NGI-1 on growth of H3255 cells. FIG. 7B illustrates MIT assays to determine the effects of NGI-1 on growth of HCC827 cells. EGFR kinase domain mutant cell lines H3255 and HCC827 cells were untreated or treated with 10 μM NGI-1 for 5 d. […] FIG. 7C illustrates cell cycle distribution of H3255 after 24 h NGI-1 treatment for 24 h determined by flow cytometry. FIG. 7D illustrates cell cycle distribution of HCC827 after 24 h NGI-1 treatment for 24 h determined by flow cytometry.
For the assessment of cell cycle distribution, 1×10^6 cells were collected, washed once with ice-cold PBS and fixed in ice-cold 70% ethanol overnight at −20° C. Thereafter, cells were washed twice with PBS and incubated for 30 min at room temperature in 200 μL of Guava Cell Cycle Reagent (Guava Technologies). Cytofluorometric acquisitions were performed on a LSRII cytometer (BD Biosciences). First-line analysis was performed with Flow Jo software, upon gating on the events characterized by normal forward and side scatter parameters and discrimination of doublets in a FSC-A vs. FSC-H bivariate plot. Approximately 30,000 cells were analyzed per experiment, and the mean value was obtained from 3 independent assays.

[4] = system: A549 cells; test: Apoptosis by flow cytometry (Annexin-V, 7-AAD), A549; details: A549, NGI-1 10 μM for 2 or 5 days, or Tn 1 μM
Procedure: Analysis of apoptosis susceptibility in A549 and PC9 NSCLC cell lines followed treatment with NGI-1 10 μM or Tn 1 μM for 2 days was done by flow cytometry after staining the cells with Annexin-V (early apoptosis) and 7-AAD (viability dye). […] FIG. 9C: Western blot of BIP protein for A549 and PC9 cells after treatment with 10 μM NGI-1 for 6, 12 or 24 h. The expression of GAPDH was used as a loading control.

In the case of Cc1cnc(NC(=O)c2cc(S(=O)(=O)N(C)C)ccc2N2CCCC2)s1 [NGI-1, 5-(N,N-Dimethylsulfamoyl)-N-(5-methylthiazol-2-yl)-2-(pyrrolidin-1-yl)benzamide], the “production of free glycans and cleaved peptide glycans” value [1] is reported as “substantially reduced the production of both free and cleaved glycans”, the EGFR phosphorylation [2] is reported as “blocked phosphorylation of KD mutant EGFR” and the cell cycle distribution [3] is reported as “undergo G1 arrest”. For the same compound, the induction of apoptosis [4] was “did not induce apoptosis”.
